Experimental data published in patent publication US6800630B2, “Pyrimidine derivatives having antitumor effect” (Shionogi & Co., Ltd., priority 2000, dated 2004).
≈ marks a conversion by molar mass, not a printed value.

These compounds were tested on human pancreas cancer PANC-1 (assay: In vitro cell growth inhibition test, MTT assay). Settings: MTT assay 4 days after compound addition.
Type: cell-based
Source text: (§1) Test Example 2 In vitro cell growth inhibition test Cells and MTT assay
(§2) Human squamous lung cancer […], human squamous lung cancer Ma44, human lung adenocarcinoma A549, human colon cancer HT29 and human pancreas cancer PANC-1 were used.

IC50 PANC-1 [µg/mL]	Compound
0.034 (≈ 0.0792 µM)	CCNC(=Nc1nc(C)ncc1CSc1nnc(-c2ccc([N+](=O)[O-])cc2)o1)OC [Compound A-32]
0.002 (≈ 0.00456 µM)	C#CCNC(=Nc1nc(C)ncc1CSc1nnc(-c2ccc([N+](=O)[O-])cc2)o1)NC [Compound C-2, reference compound]
0.0064 (≈ 0.0133 µM)	CNC(=Nc1nc(C)ncc1CSc1nnc(-c2ccc([N+](=O)[O-])cc2)o1)NCC(F)(F)F [Compound C-1, reference compound]
0.0064 (≈ 0.0154 µM)	CCNC(=Nc1nc(C)ncc1CSc1nnc(-c2ccc(N)cc2)o1)SC [Compound A-11]
0.051 (≈ 0.114 µM)	CCNC(=Nc1nc(C)ncc1CSc1nnc(-c2ccc([N+](=O)[O-])cc2)o1)SC [Compound A-3]
0.046 (≈ 0.107 µM)	CNC(=Nc1nc(C)ncc1CSc1nnc(-c2ccc([N+](=O)[O-])cc2)o1)SC [Compound A-1]

These compounds were tested on human squamous lung cancer Ma44 (assay: In vitro cell growth inhibition test, MTT assay). Settings: MTT assay 4 days after compound addition.
Type: cell-based
Source text: as §1, §2

IC50 Ma44 [µg/mL]	Compound
0.042 (≈ 0.0978 µM)	CCNC(=Nc1nc(C)ncc1CSc1nnc(-c2ccc([N+](=O)[O-])cc2)o1)OC [Compound A-32]
0.0034 (≈ 0.00775 µM)	C#CCNC(=Nc1nc(C)ncc1CSc1nnc(-c2ccc([N+](=O)[O-])cc2)o1)NC [Compound C-2, reference compound]
0.011 (≈ 0.0228 µM)	CNC(=Nc1nc(C)ncc1CSc1nnc(-c2ccc([N+](=O)[O-])cc2)o1)NCC(F)(F)F [Compound C-1, reference compound]
0.077 (≈ 0.185 µM)	CCNC(=Nc1nc(C)ncc1CSc1nnc(-c2ccc(N)cc2)o1)SC [Compound A-11]
0.056 (≈ 0.126 µM)	CCNC(=Nc1nc(C)ncc1CSc1nnc(-c2ccc([N+](=O)[O-])cc2)o1)SC [Compound A-3]
0.12 (≈ 0.278 µM)	CNC(=Nc1nc(C)ncc1CSc1nnc(-c2ccc([N+](=O)[O-])cc2)o1)SC [Compound A-1]

These compounds were tested on human squamous lung cancer RERF-RC-AI (assay: In vitro cell growth inhibition test, MTT assay). Settings: MTT assay 4 days after compound addition.
Type: cell-based
Source text: as §1, §2

IC50 RERF-LC-AI [µg/mL]	Compound
0.031 (≈ 0.0722 µM)	CCNC(=Nc1nc(C)ncc1CSc1nnc(-c2ccc([N+](=O)[O-])cc2)o1)OC [Compound A-32]
0.046 (≈ 0.103 µM)	CCNC(=Nc1nc(C)ncc1CSc1nnc(-c2ccc([N+](=O)[O-])cc2)o1)SC [Compound A-3]

Each compound was assayed on human colon cancer HT29 (assay: In vitro cell growth inhibition test, MTT assay). Settings: MTT assay 4 days after compound addition.
Type: cell-based
Source text: as §1, §2

IC50 HT-29 [µg/mL]	Compound
0.031 (≈ 0.0722 µM)	CCNC(=Nc1nc(C)ncc1CSc1nnc(-c2ccc([N+](=O)[O-])cc2)o1)OC [Compound A-32]
0.002 (≈ 0.00456 µM)	C#CCNC(=Nc1nc(C)ncc1CSc1nnc(-c2ccc([N+](=O)[O-])cc2)o1)NC [Compound C-2, reference compound]
0.0066 (≈ 0.0137 µM)	CNC(=Nc1nc(C)ncc1CSc1nnc(-c2ccc([N+](=O)[O-])cc2)o1)NCC(F)(F)F [Compound C-1, reference compound]
0.0067 (≈ 0.0161 µM)	CCNC(=Nc1nc(C)ncc1CSc1nnc(-c2ccc(N)cc2)o1)SC [Compound A-11]
0.052 (≈ 0.117 µM)	CCNC(=Nc1nc(C)ncc1CSc1nnc(-c2ccc([N+](=O)[O-])cc2)o1)SC [Compound A-3]
0.045 (≈ 0.104 µM)	CNC(=Nc1nc(C)ncc1CSc1nnc(-c2ccc([N+](=O)[O-])cc2)o1)SC [Compound A-1]

Each compound was assayed on human lung adenocarcinoma A549 (assay: In vitro cell growth inhibition test, MTT assay). Settings: MTT assay 4 days after compound addition.
Type: cell-based
Source text: as §1, §2

IC50 A549 [µg/mL]	Compound
0.064 (≈ 0.149 µM)	CCNC(=Nc1nc(C)ncc1CSc1nnc(-c2ccc([N+](=O)[O-])cc2)o1)OC [Compound A-32]
0.0044 (≈ 0.01 µM)	C#CCNC(=Nc1nc(C)ncc1CSc1nnc(-c2ccc([N+](=O)[O-])cc2)o1)NC [Compound C-2, reference compound]
0.016 (≈ 0.0332 µM)	CNC(=Nc1nc(C)ncc1CSc1nnc(-c2ccc([N+](=O)[O-])cc2)o1)NCC(F)(F)F [Compound C-1, reference compound]
0.014 (≈ 0.0337 µM)	CCNC(=Nc1nc(C)ncc1CSc1nnc(-c2ccc(N)cc2)o1)SC [Compound A-11]
0.063 (≈ 0.141 µM)	CCNC(=Nc1nc(C)ncc1CSc1nnc(-c2ccc([N+](=O)[O-])cc2)o1)SC [Compound A-3]
0.0009 (≈ 0.00209 µM)	CNC(=Nc1nc(C)ncc1CSc1nnc(-c2ccc([N+](=O)[O-])cc2)o1)SC [Compound A-1]

These compounds were tested on signal derived from Ras oncogene products (DT-R cells, pRRE3-luc transfected v-ki-ras-transformed NIH373 cells) (assay: Inhibitory effect against cellular signaling derived from Ras oncogene products: RRE-luciferase reporter, Minimal Active Concentration (MAC) at which DT-C and DT-R activities dissociate). Settings: minimal concentration at which luciferase activities of DT-C and DT-R cells dissociated.
Type: cell-based
Source text: (§3) Test Example 1 Inhibitory effect against cellular signaling derived from Ras oncogene products
(§4) Based on the reporter plasmid (pGV-P (Toyo Ink, Japan)), in which luciferase gene was ligated to SV40-derived minimal promoter, we constructed a plasmid designated pRRE3-luc by inserting 3 copies of chemically synthesized oligonucleotides (Sequence: CAGGATATGACTCT, derived from mouse NVL-3 (M. A. Reddy et al.(1992)Mol. Endocrinol., 6, 1051)) into upstream of the promoter. v-ki-ras-transformed NIH373 cells (DT cells, provided by Dr. Makoto Noda (Kyoto Univ., School of medicine)) were transfected with this plasmid by liposome-mediated transfection and transfected cell lines stably incorporated and maintained each plasmid were obtained. We named pGV-P and pRRE3-transfected cell line as DT-C and DT-R, respectively and used in the assay described below.
(§5) i) All the cell lines were cultured in Dulbecco's Modified Essential Medium (DMEM: 10% Fetal Calf Serum(FCS: Hyclone, USA)) including […] kanamycin (Meiji Seika, Japan) in humidified incubator under condition of 5% CO2 at 37° C.
(§6) ii) DT-C and DT-R cells were seeded at 2500 cells/well into flat-bottom 96 well multiplate (Sumitomo bakelite) and incubated for 24 hours.
(§7) iii) Test compounds were prepared as 1 mg/ml DMSO solution.
(§8) iv) The solution of test compounds were added to the culture. Tested compounds are used at the concentration from […] to 0.51 ng/ml with 3-fold dilution.
(§9) v) After 24 hours, the culture supernatant was completely aspirated and 20 μl of cell-lysing solution (PGC-50 (Toyo Ink, Japan)) was added before cells were dried up. In order to lyse the cells completely, multiwell plates were left at room temperature for 10 to 30 min. The plates were wrapped up and stored at −20° C. till the day of measurement.
(§10) i) Melt the samples by putting 96 well multiplate at 37° C. and add 90 μl/well 25 mM Tris (pH 7.5).
(§11) ii) Transfer 50 μl of the sample (110 μl) to the 96 well microplate (Microlite 1 (Dynatech)) for measurement.
(§12) iii) Measure the samples by the luminometer, LUMINOUS CT9000D (Dia-Yatron, Japan). We used Pickagene luminescence kit PGL2000 or LT2.0 (Toyo Ink, Japan) as enzyme substrates for luminescence measurement (50 μl/well).
(§13) i) The luciferase activity of DT-C cells and DT-R cells were plotted in the graph where the relative activity and the compound concentration were expressed as Y-axis and X-axis, respectively. We judged by the degree of dissociation between the activities of DT-C cells and DT-R cells as an index.
ii) Concretely, efficacy of the compound was expressed by two values described below.
a) Among the points of concentration tested, the minimal concentration (Minimal Active Concentration: MAC), at which the activities of DT-C cells and DT-R cells dissociated, was shown as an index of efficacy of the compound.

Compound	MAC (Minimal Active Concentration) [µg/mL]
CCNC(=Nc1nc(C)ncc1CSc1nnc(-c2ccc([N+](=O)[O-])cc2)o1)OC [Compound A-32]	0.123
C#CCNC(=Nc1nc(C)ncc1CSc1nnc(-c2ccc([N+](=O)[O-])cc2)o1)NC [Compound C-2, reference compound]	0.0137
CNC(=Nc1nc(C)ncc1CSc1nnc(-c2ccc([N+](=O)[O-])cc2)o1)NCC(F)(F)F [Compound C-1, reference compound]	0.0412
CCNC(=Nc1nc(C)ncc1CSc1nnc(-c2ccc(N)cc2)o1)SC [Compound A-11]	0.0412
CCNC(=Nc1nc(C)ncc1CSc1nnc(-c2ccc([N+](=O)[O-])cc2)o1)SC [Compound A-3]	0.37
CNC(=Nc1nc(C)ncc1CSc1nnc(-c2ccc([N+](=O)[O-])cc2)o1)SC [Compound A-1]	1.11

The compounds below were run on DT-C cells (pGV-P transfected v-ki-ras-transformed NIH373 cells) (assay: Luciferase activity of DT-C control cells (IC50-C), index of non-specific transcription-inhibitory effect or cytotoxicity). Settings: tested concentration nearest to 50% inhibition in DT-C cells.
Type: cell-based
Source text: as §3, §4, §5, §6, §7, §8, §9, §10, §11, §12, §13
b) Among the points of concentration tested, the concentration which is the nearest to 50% inhibition concentration at DT-C cells (IC50-C), was shown as an index of non-specific transcription-inhibitory effect or of cytotoxicity. In case of positive compounds, 50% inhibition concentration in DT-C cells which was higher than the active concentration was expressed as IC50-C.

Compound	IC50 (IC50-C) [µg/mL]
CCNC(=Nc1nc(C)ncc1CSc1nnc(-c2ccc([N+](=O)[O-])cc2)o1)OC [Compound A-32]	>10
C#CCNC(=Nc1nc(C)ncc1CSc1nnc(-c2ccc([N+](=O)[O-])cc2)o1)NC [Compound C-2, reference compound]	>10
CCNC(=Nc1nc(C)ncc1CSc1nnc(-c2ccc(N)cc2)o1)SC [Compound A-11]	>10
CCNC(=Nc1nc(C)ncc1CSc1nnc(-c2ccc([N+](=O)[O-])cc2)o1)SC [Compound A-3]	>10
CNC(=Nc1nc(C)ncc1CSc1nnc(-c2ccc([N+](=O)[O-])cc2)o1)SC [Compound A-1]	>10
